According to patent EP1149072B1, “SULFONAMIDE HYDROXAMATES” (F. HOFFMANN-LA ROCHE AG, priority 1998, dated 2000):

What was measured:
Format in all cases: biochemical
[1] = target: T1, Procollagen C-Proteinase (PCP) (Homo sapiens, UniProt P13497); test: Inhibition of Procollagen C-Proteinase activity, Assay A (continuous fluorescence assay, synthetic peptide substrate); conditions: Assay A from Ex. 21; 20 µM substrate, pH 7.5, 30°C
T1 construct: made in house; enzyme purified from culture fluid
T1 sequence (P13497 121-730 isoform P13497-2 limits assumed): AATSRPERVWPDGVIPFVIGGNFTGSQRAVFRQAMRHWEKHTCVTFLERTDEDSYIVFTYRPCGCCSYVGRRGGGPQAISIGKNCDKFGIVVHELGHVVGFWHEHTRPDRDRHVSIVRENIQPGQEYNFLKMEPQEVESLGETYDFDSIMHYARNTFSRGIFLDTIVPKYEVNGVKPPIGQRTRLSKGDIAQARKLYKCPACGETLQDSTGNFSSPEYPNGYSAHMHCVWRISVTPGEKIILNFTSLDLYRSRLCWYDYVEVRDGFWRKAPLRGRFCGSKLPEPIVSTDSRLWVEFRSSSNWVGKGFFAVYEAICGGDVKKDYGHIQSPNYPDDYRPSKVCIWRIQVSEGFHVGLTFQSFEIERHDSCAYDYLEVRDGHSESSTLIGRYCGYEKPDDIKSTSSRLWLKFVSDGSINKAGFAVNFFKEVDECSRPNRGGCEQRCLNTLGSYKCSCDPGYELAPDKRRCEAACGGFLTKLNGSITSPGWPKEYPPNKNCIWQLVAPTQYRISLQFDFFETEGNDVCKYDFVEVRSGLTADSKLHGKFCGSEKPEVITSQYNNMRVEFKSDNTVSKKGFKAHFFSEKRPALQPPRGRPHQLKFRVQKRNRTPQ
Protocol: Human Procollagen C-Proteinase (PCP, also known as Bone Morphogenetic Protein-1 or BMP-1) was cloned from a human fibroblast cDNA library (Stratagene, San Diego, CA). Cloning was performed by PCR based on the reported nucleotide sequence (Wozney, J.M., Rosen,V., Celeste, A.J., Mitsock, L.M., Whitters, M.J., Kriz, R.W., Hewick, R.M., and Wang, E.A. (1989) direct GenBank submission accession M22488, locus HUMBMP1) using Taq polymerase, the 5' primer […] […] […] (SEQ ID NO:1) (Oligo Therapeutics, Inc., Wilsonville, OR), and the 3' reverse strand primer […] TTGAGCTGGTG (SEQ ID NO:2) (Gibco) to yield the entire full-length nucleotide encoding the signal sequence, propeptide, catalytic domain, and all C-terminal domains to the natural translation termination site. The PCR product was purified by gel electrophoresis using the Wizard DNA Purification Kit (Promega, Madison, WI) and ligated directly into the mammalian expression vector pCR3.1 (Invitrogen, Carlsbad, CA) by the TA cloning method. Ligated product was used to transform E coli strain TOP10F' (Invitrogen, Carlsbad, CA) by a standard heat-shock method, and transformants were selected by restriction analysis of purified plasmid using the enzymes HindIII and BamHI. Transformants testing positive for the PCP insert were submitted for sequencing using the Perkin-Elmer / ABI system. Two clones were selected that, when combined, encoded the entire amino acid sequence identical to the one predicted by Wozney et al. The two clones were recombined by restriction using the enzymes BbrI, which cleaved at a naturally occurring internal site, and EcoRV, which cleaved at the junction of the insert and vector. The excised fragments were religated into EcoRV-treated pCR3.1. The resulting construct contained the entire coding sequence identical to that reported by Wozney et al. with the exception of two silent mutations in the signal sequence, G->A at both positions 39 and 45 counting from the translation initiation site (ATG). The completed plasmid construct was amplified in E. coli DH5a and purified using anion exchange chromatography (MaxiPrep columns from Qiagen (Valencia, CA) catalog #12162).
A column packed with Dyematrex Gel Green A (Millipore, Bedford, MA) was equilibrated against 50 mM HEPES, pH7.2, containing 6mM CaCl2 and 0.3M NaCl. After the HT1080 cell culture fluid was loaded, the column was washed with 10 column volumes of the equilibration buffer containing 1.0 M NaCl. PCP was eluted with 50 mM HEPES pH 7.2 containing 3 M NaCl, 2 M urea and 6 mM CaCl2. Eluate fractions were pooled and concentrated to 150-200 ml and dialyzed against 4.0 liters of 50 mM HEPES, 6 mM CaCl2, pH 7.2 overnight. The material was then centrifuged at 5,000 g for 15 minutes to remove precipitates. The PCP containing sample were stored at -20 °C until ready for further processing. The PCP containing sample was thawed and diluted with 50 mM HEPES pH 7.2 containing 6 mM CaCl2, if necessary to bring the NaCl concentration to 0.1-0.15 M. The pH was adjusted to 6.7 with 2 N HCl. The protein solution was filtered through a 0.45 µm filter to remove any precipitate. This preparation was then loaded onto a column packed with Q-Sepharose High Performance (Pharmacia, Piscataway, NJ) which had been equilibrated with 50mM HEPES pH 6.7 containing 6 mM CaCl2 and 0.15 M NaCl. The PCP was not retained in the column and was therefore in the flow through fractions. The PCP was concentrated to 1 mg/ml and used for screening.
Culture fluid from the drosophila cells was concentrated 8 fold and the pH adjusted to 7.1-7.2 if necessary. The culture fluid was centrifuged at 3000 g for 10 minutes and filtered through 0.45 µm filters. The culture fluid was then loaded onto columns packed with carboxy-sulfone packing material (J.T. Baker/Mallinckrodt, Phillipsburg, NJ) which had been equilibrated with 0.1 M NaCl, 50 mM HEPES, 6 mM CaCl2, pH 7.2. […]

[2] = target: T2, collagenase-1 (Homo sapiens, UniProt P03956); test: Measurement of collagenase activity (hydrolysis of fluorogenic peptide MCA-Pro-Leu-Gly-Leu-DPA-Ala-Arg-NH2); conditions: based on inhibitory data from Assay A of Ex. 21 and the Assay of Ex. 22
T2 construct: the collagenase-1 catalytic domain was released by treatment with 1mM of aminophenylmercuric acetate (APMA); ubiquitin (cleaved yes); made in house; host or cells: E. coli
T2 sequence (P03956 100-269 limits assumed): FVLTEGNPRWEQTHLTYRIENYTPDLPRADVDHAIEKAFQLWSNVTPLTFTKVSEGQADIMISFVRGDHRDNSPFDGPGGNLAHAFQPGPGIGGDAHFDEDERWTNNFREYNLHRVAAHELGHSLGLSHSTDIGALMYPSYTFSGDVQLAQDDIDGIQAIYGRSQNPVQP
Protocol: (§1) The catalytic domain of human collagenase-1 was expressed as a fusion protein with ubiquitin in E. Coli as described in Gehring, E.R. et al., J. Biol. Chem., 270, 22507, (1995). After purification of the fusion protein, the collagenase-1 catalytic domain was released by treatment with 1mM of aminophenylmercuric acetate (APMA) for 1 hour at 37 °C and then purified by zinc chelate chromatography. Human collagenase-2 and gelatinase B were isolated in active form from buffy coats as described in Mookhtiar, K.A. et al., Biochemistry, 29, 10620, (1990). The propeptide and catalytic domain portion of human collagenase-3 was expressed in E. Coli as an N-terminal fusion protein with ubiquitin. After purification, the catalytic domain was released by treatment with 1 mM APMA for 1 hour at 37 ° C, and then purified by zinc chelate chromatography. Rat collagenase-3 was purified in active form from the culture media of uterine smooth muscle cells as described in Roswit, W.T. et al., Arch. Biochem. Biophys., 225, 285-295 (1983).
(§2) The collagenase-1, collagenase-2 and collagenase-3 inhibitory activity of compounds of this invention in vitro was determined based on the hydrolysis of MCA-Pro-Leu-Gly-Leu-DPA-Ala-Arg-NH2 (SEQ ID NO:8) (Bachem, Inc.) at 37°C as described in Knight, C.G., et al., FEBS Lett., 296(3): 263-266 (1992). The collagenase enzyme was diluted with assay buffer (50 mM Tricine pH 7.5, 200 mM NaCl, 10 mM CaCl2, and 0.005% Brij-35) containing […] of above substrate dissolved in DMSO. Compounds of the invention dissolved in DMSO or only DMSO (control samples) were added such that the final DMSO concentration in all assays was 2.5%. The fluorescence changes were monitored with a Perkin-Elmer LS-50B flourimeter using an excitation wavelength of 328 nm and an emission wavelength of 393 nm.

[3] = target: T3, collagenase-2 (Homo sapiens, UniProt P22894); test: as above; conditions: based on inhibitory data from Assay A of Ex. 21 and the Assay of Ex. 22
T3 construct: Human collagenase-2 and gelatinase B were isolated in active form from buffy coats; from tissue; host or cells: human buffy coats (blood leukocytes)
Protocol: as §1, §2

[4] = target: T4, collagenase-3 (Homo sapiens, UniProt P45452); test: as above; conditions: based on inhibitory data from Assay A of Ex. 21 and the Assay of Ex. 22
T4 construct: After purification, the catalytic domain was released by treatment with 1 mM APMA for 1 hour; ubiquitin (N, cleaved yes); made in house; host or cells: E. coli
Protocol: as §1, §2

T3 sequence (P22894 101-467): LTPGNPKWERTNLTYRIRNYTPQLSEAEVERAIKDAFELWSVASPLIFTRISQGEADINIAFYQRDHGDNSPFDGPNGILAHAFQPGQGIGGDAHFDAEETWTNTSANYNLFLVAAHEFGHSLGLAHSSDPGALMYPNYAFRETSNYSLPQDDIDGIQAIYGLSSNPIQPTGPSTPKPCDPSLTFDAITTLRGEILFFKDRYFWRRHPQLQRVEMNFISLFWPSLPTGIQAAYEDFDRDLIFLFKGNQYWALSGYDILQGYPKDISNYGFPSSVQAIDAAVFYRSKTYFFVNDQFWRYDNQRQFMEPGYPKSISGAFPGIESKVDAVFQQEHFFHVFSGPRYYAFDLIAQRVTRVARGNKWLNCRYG

SMILES: COc1cc(C)c(S(=O)(=O)N(Cc2ccc3c(c2)OCO3)[C@H](CNS(C)(=O)=O)C(=O)NO)c(C)c1 [Cmpd 128, N-hydroxy-2(R)-[(3,4-methylendioxybenzyl)-(2,6-dimethyl-4-methoxybenzenesulfonyl)amino]-3-(methanesulfonyl)amino-propionamide]
- IC50 [1]: 30 nM

SMILES: COc1cc(C)c(S(=O)(=O)N(Cc2ccc3c(c2)OCO3)[C@@H](C(=O)NO)C(C)C)c(C)c1C [Cmpd 12, N-hydroxy-2(R)-[(3,4-methylenedioxybenzyl)-(4-methoxy-2,3,6-trimethylbenzenesulfonyl)amino]-3-methylbutyramide]
- IC50 [1]: 69 nM
- Selectivity for PCP/Col-1 [2]: 89.9
- Selectivity for PCP/Col-2 [3]: 23.2
- Selectivity for PCP/Col-3 [4]: 14.5

SMILES: COc1cc(C)c(S(=O)(=O)N(Cc2ccc3[nH]ccc3c2)[C@H](COC(C)(C)C)C(=O)NO)c(C)c1C [Cmpd 15, N-Hydroxy-2(R)-[(4-methoxy-2,5,6-trimethylbenzenesulfonyl)-(1H-indol-5-ylmethyl)amino]-3-tert-butoxypropionamide]
- IC50 [1]: 66 nM
- Selectivity for PCP/Col-1 [2]: 515.1
- Selectivity for PCP/Col-2 [3]: 454.5

SMILES: COc1cc(C)c(S(=O)(=O)N(Cc2ccc3[nH]ccc3c2)[C@@H](C(=O)NO)C(C)C)cc1C [Cmpd 145, N-hydroxy-2(R)-2-[(1H-indol-5-ylmethyl)-(4-methoxy-2,5-dimethylbenzenesulfonyl)-amino]-3-methylbutyramide]
- IC50 [1]: 110 nM
- Selectivity for PCP/Col-1 [2]: 400.0
- Selectivity for PCP/Col-2 [3]: 136.4

SMILES: COc1cc(C)c(S(=O)(=O)N(Cc2ccc3[nH]cnc3c2)[C@@H](C(=O)NO)C(C)C)c(C)c1C [Cmpd 82]
- IC50 [1]: 40 nM
- Selectivity for PCP/Col-1 [2]: 1775.0
- Selectivity for PCP/Col-2 [3]: 250.0
- Selectivity for PCP/Col-3 [4]: 1950.0

SMILES: COc1cc(C)c(S(=O)(=O)N(Cc2ccc3[nH]cc(C(C)=O)c3c2)[C@@H](C(=O)NO)C(C)C)c(C)c1C [Cmpd 126, N-hydroxy-2(R)-[(1H-3-acetyl-indol-5-ylmethyl)-(4-methoxy-2,3,6-trimethylbenzenesulfonyl)amino]-3-methylbutyramide]
- IC50 [1]: 26 nM

SMILES: COc1cc(C)c(S(=O)(=O)N(Cc2ccc3c(c2)OCO3)[C@H](CO)C(=O)NO)c(C)c1C [Cmpd 5, N-hydroxy-2(R)-[(3,4-methylenedioxybenzyl)-(4-methoxy-2,3,6-trimethylbenzenesulfonyl)amino)-3-hydroxypropionamide]
- IC50 [1]: 73 nM
- Selectivity for PCP/Col-1 [2]: 520.5
- Selectivity for PCP/Col-2 [3]: 123.3

SMILES: COc1cc(C)c(S(=O)(=O)N(Cc2ccc3c(c2)OCO3)[C@@H](C(=O)NO)C(C)C)c(C)c1 [Cmpd 40, N-hydroxy-2(R)-2-[(3,4-methylenedioxybenzyl)-(4-methoxy-2,6-dimethylbenzene-sulfanyl)amino]-3-methylbutyramide]
- IC50 [1]: 68 nM
- Selectivity for PCP/Col-1 [2]: 367.6
- Selectivity for PCP/Col-2 [3]: 55.9
